Source: publication PMC6009956, “Design, synthesis and biological activity of N^4-phenylsubstituted-7H-pyrrolo[2,3-d]pyrimidin-4-amines as dual inhibitors of aurora kinase A and epidermal growth factor receptor kinase” (Journal of Enzyme Inhibition and Medicinal Chemistry, 2017)

Legend:
[1] = tested on: SAS cells; assay: Proliferation (cell counting), SAS; assay type: cell-based; conditions: 100 µM
Method: (§1) FADU, BHY, SAS and CAL cell lines were obtained from ATCC-LGC and were cultured in DMEM (Invitrogen, Germany) supplemented with 10% of heat activated bovine serum (FBS, PAA, Germany), 1% of glutamine, 1% of penicillin-streptomycin (Invitrogen, Germany). To measure proliferation, SCCHN cells were split, reseeded (5 × 10^5 in 25 cm^2 flasks) and counted at the indicated time points. Cells were then replated at the initial density. The fold increase in cell number was calculated, all given results are based on triplicate experiments. To assess cell death 5 × 10^5 cells were stained with propidium iodide (PI, Sigma, Germany). Following incubation, cells were washed, resuspended in PBS, and analysed by flow cytometry. The fraction of PI-positive cells is reported as dead cell fraction.
(§2) Figure 3. […] Cells were incubated with compound 2 for 48 h and then subjected to PI staining and FACS analysis. PI-positive cell fraction as measure of cell death is reported. (B) Four SCCHN cell lines were incubated with 100 μM of compound 2 and counted on the indicated days. Experiments in triplicates, fold growth shown. (C) EGFR expression of SCCHN cell lines. EGFR high and low as detected by western blot analysis (D) The SCCHN cell lines were incubated with 100 μM of compound 2 for 72 h. Percent PI positive cells are given. Experiments in triplicates.

[2] = tested on: BHY cells; assay: Proliferation (cell counting), BHY; assay type: cell-based; conditions: 100 µM
Method: as §1, §2

Brc1cccc(Nc2ncnc3[nH]ccc23)c1 [Compound 2, N^4-(3-bromophenyl)-7H-pyrrolo[2,3-d]pyrimidine-4-amine] was tested, and the “Cell growth (fold growth)” value [1] was “completely inhibited cell growth” and the “Cell growth (fold growth)” value [2] was “completely inhibited cell growth”.
